The values that follow come from patent US8398958B2, “Carotenoid compositions useful for whitening skin” (I.B.R. Israeli Biotechnology Research Ltd., priority 2006, dated 2013).

Molecules are shown by their SMILES.

In assay [1] the test system is B16 murine melanoma cells. Kind of assay: Melanin assay - B16 murine melanoma. The settings on record: tested at 0.04%. Format: cell-based. Here is the method: The R7-B16 cells were cultivated in 24 well plates (1000 cells/well). At 20% confluence, culture media were replaced by fresh media containing or not containing (control) the test compound, KA or IBMX (references) or DMSO at a final concentration of 0.5% (control DMSO). Each experimental condition was examined in triplicate. The cells were incubated at 37° C. for 144 hours with medium change after 3 days (2×72 h).
(§1) After incubation, the cell monolayers were rinsed, the cells were lysed and melanin was extracted by a solution 0.5 M NaOH. The optical density (OD) of each experimental point was measured at 405 nm against melanin standards (standard curve 0.39 to 100 μg melanin/ml solution, Sigma M8631). Results were expressed in μg melanin/ml and in percent of the negative control.
(§2) The raw data were transferred to and analyzed with PRISM® software (Graph Pad Software). The inter-group comparisons were performed by variance analysis (ANOVA) with multiple comparison test of Dunnett.

The subject of assay [2] is Normal human epidermal melanocytes (NHEM-2). Kind of assay: Melanin assay - normal human melanocytes. Format: cell-based. The settings on record: for Melanin: 240 hours incubation; for % of control (melanin content): 240 hours, vs control. The procedure:
The R6-NHEM-2 cells were cultivated in 24 well plates (120,000 cells/well). At 50% confluence, culture media were replaced by fresh media containing or not containing (control) the test compound, KA or IBMX (references) or DMSO at a final concentration of 0.5% (control DMSO). Each experimental condition was examined in triplicate (hexaplicate for control). The cells were incubated at 37° C. for 240 hours with medium change every 3 days.
as §1, §2

Consider `O=c1cc(CO)occ1O` [Kojic Acid], for which the results for the Melanin in assay [1] (144 hours incubation), in assay [2] (tested at 0.00156%) and in assay [2] (tested at 0.0036%) were 14.9 µg/mL, 16.1 µg/mL and 13.6 µg/mL, respectively. Besides, the “% of control (melanin content)” value is 88% in assay [1] (144 hours, vs control); 79% in assay [2] (tested at 0.00156%); 67% in assay [2] (tested at 0.0036%).
